Experimental data from patent US9540691B2, “Assays and methods for selecting a treatment regimen for a subject with depression” (THE GENERAL HOSPITAL CORPORATION, priority 2011, dated 2017).
Read-outs that look alike come from different tables or passages of the source.

Test system: MDD patients carrying the indicated conditions
Settings: with SSRI
Description: Folate levels are classified as either low (<=2.5 ng/ml) or normal; and homocysteine levels as either normal or elevated (>=[…]). The presence or absence of at least one […] allele for the MTHFR gene are entered as a dichotomous variable (present or absent). […] Using folate as an example predicator, the presence or absence of a low serum-folate level along with treatment assignment can be entered in a 2×2, factorial ANOVA, using depression improvement scores (baseline minus endpoint HAM-D-17 scores) as the dependant variable. […] Similar analyses (i.e. separate 2×2 ANOVA's) can be performed substituting the presence of low folate levels for the presence of other predictors as described herein. Similarly, the effect of other predictors can be indicated by the interaction term representing the potential modulating influence of those variables.
Particularly, specific genetic and biomarkers that were assessed include the following: • (a) BMI calculation of at least about 30 kg/m^2; • (b) an expression ratio of SAM/SAH smaller than 2.8 (e.g., 2.71) as measured in a plasma sample; • (c) a level of 4-HNE no less than 3.28 μg/mL (as measured in a plasma sample); • (d) presence of rare variants CT or TT at position 677 of SEQ ID NO: 1 corresponding to a portion of a genomic nucleic acid sequence of methylenetetrahydrofolate reductase (MTHFR) (abbreviated as “MTHFR 677” below); • (e) presence of rare variants AG or GG at position 2756 of SEQ ID NO: 2 corresponding to a portion of genomic nucleic acid sequence of methionine synthase (MTR) (abbreviated as “MTR 2756” below); and • (f) presence of rare variants AG or GG at position 66 of SEQ ID NO: 3 corresponding to a portion of genomic nucleic acid sequence of methionine synthase reductase (MTRR) (abbreviated as “MTRR 66” below).
The efficacy effect is determined by measuring the mean change in the HAMD-17 score and HAMD-28 score by the end of Phase I and Phase II, as compared to the baseline.

[1] = Phase II, interaction of BMI with the treatment
[2] = Phase II, interaction of HNE-his with the treatment
[3] = Phase II, interaction of SAM/SAH with the treatment
[4] = Pooled phases, 25 =< BMI < 30 kg/m^2 (18, 10)
[5] = Pooled phases, BMI < 25 (14, 7)

In the case of `CN1c2c(nc(N)[nH]c2=O)NC[C@@H]1CNc1ccc(C(=O)N[C@@H](CCC(=O)O)C(=O)O)cc1` [6(S)-5-MTHF, 6(S)-5-methyltetrahydrofolate], the “Effect, change in HAMD-28 score” value (Phase II, MTR 2756 AA and MTRR 66 AA) is reported as −8.000, the “Effect, change in HAMD-17 score” value (Phase II, MTR 2756 AA and SAM/SAH >= median (24,12)) is reported as 1.971 and the “Effect, change in HAMD-28 score” value (Phase II, MTR 2756 AA and SAM/SAH >= median) is reported as 2.000. For the same compound, the “Effect, change in HAMD-28 score” value (Phase II, MTR 2756 AA) was −0.446, the “Effect, change in HAMD-17 score” value (Phase II, MTR 2756 AG or GG and BMI >= 30 kg/m^2 (10,5)) was −12.167 and the “Effect, change in HAMD-28 score” value (Phase II, MTR 2756 AG or GG and BMI >= 30 kg/m^2) was −13.000. For the same compound, the “Effect, change in HAMD-17 score” value (Phase II, MTR 2756 AG or GG and HNE-His >= median (13,7)) was −8.417, the “Effect, change in HAMD-28 score” value (Phase II, MTR 2756 AG or GG and HNE-His >= median = 3.28 (plasma sample)) was −9.500 and the “Effect, change in HAMD-17 score” value (Phase II, MTR 2756 AG or GG and MTRR 66 AG or GG (15,7)) was −4.667. For the same compound, the “Effect, change in HAMD-17 score” value (Phase II, MTR 2756 AG or GG and MTRR 66 AG or GG and BMI >= 30 kg/m^2 (8,4)) was −11.000, the “Effect, change in HAMD-28 score” value (Phase II, MTR 2756 AG or GG and MTRR 66 AG or GG and BMI >= 30 kg/m^2) was −12.000 and the “Effect, change in HAMD-17 score” value (Phase II, MTR 2756 AG or GG and MTRR 66 AG or GG and HNE-His >= median (10,4)) was −11.000. The “Effect, change in HAMD-28 score” value (Phase II, MTR 2756 AG or GG and MTRR 66 AG or GG and HNE-His >= median) was −12.000, the “Effect, change in HAMD-17 score” value (Phase II, MTR 2756 AG or GG and MTRR 66 AG or GG and SAM/SAH < median (8,3)) was −6.500 and the “Effect, change in HAMD-28 score” value (Phase II, MTR 2756 AG or GG and MTRR 66 AG or GG and SAM/SAH < median = 2.71 (plasma sample)) was −10.500. The “Effect, change in HAMD-28 score” value (Phase II, MTR 2756 AG or GG and MTRR 66 AG or GG) was −6.583, the “Effect, change in HAMD-17 score” value (Phase II, MTR 2756 AG or GG and SAM/SAH < median (10,4)) was −2.500 and the “Effect, change in HAMD-28 score” value (Phase II, MTR 2756 AG or GG and SAM/SAH < median = 2.71 (plasma sample)) was −7.500. For the same compound, the “Effect, change in HAMD-17 score” value (Phase II, MTR 2756 AG/GG (20,11)) was −3.600, the “Effect, change in HAMD-28 score” value (Phase II, MTR 2756 AG/GG) was −5.300 and the “Effect, change in HAMD-17 score” value (Phase II, MTRR 66 AA and HNE-His < median (8,5)) was −1.667. For the same compound, the “Effect, change in HAMD-28 score” value (Phase II, MTRR 66 AA and HNE-His < median = 3.28 (plasma sample)) was −2.000, the “Effect, change in HAMD-17 score” value (Phase II, MTRR 66 AA and SAM/SAH >= median (9,6)) was −3.000 and the “Effect, change in HAMD-28 score” value (Phase II, MTRR 66 AA and SAM/SAH >= median) was −3.333. For the same compound, the “Effect, change in HAMD-17 score” value (Phase II, MTRR 66 AG or GG and HNE-His >= median (24,11)) was −3.500, the “Effect, change in HAMD-28 score” value (Phase II, MTRR 66 AG or GG and HNE-His >= median) was −4.071 and the “Effect, change in HAMD-17 score” value (Phase II, MTRR 66 AG or GG and SAM/SAH < median (24,10)) was −6.190. The “Effect, change in HAMD-28 score” value (Phase II, MTRR 66 AG or GG and SAM/SAH < median = 2.71 (plasma sample)) was −7.381, the “Effect, change in HAMD-17 score” value (Phase II, SAM/SAH < median and HNE-His >= median (19,7)) was −9.000 and the “Effect, change in HAMD-28 score” value (Phase II, SAM/SAH < median and HNE-His >= median) was −12.000. The “Effect, change in HAMD-17 score” value (Phase II, SAM/SAH >= median and HNE-His < median (18,8)) was 4.000, the “Effect, change in HAMD-28 score” value (Phase II, SAM/SAH >= median and HNE-His < median) was 4.500 and the “Effect, change in HAMD-17 score: BMI*treat” value [1] was 0.113. The “Effect, change in HAMD-28 score: BMI*treat” value [1] was 0.082, the “Effect, change in HAMD-17 score: HNE-his*treat” value [2] was 2.027 and the “Effect, change in HAMD-28 score: HNE-his*treat” value [2] was 2.362. For the same compound, the “Effect, change in HAMD-17 score: SAM/SAH*treat” value [3] was 1.483, the “Effect, change in HAMD-28 score: SAM/SAH*treat (last line)” value [3] was 1.806 and the “Effect, change in HAMD-17 score: baseHAMD-17*treat” value (Phase II, interaction of base HAMD-17 with the treatment) was −0.249. The “Effect, change in HAMD-28 score: SAM/SAH*treat (first line under HAMD28)” value (Phase II, interaction with the treatment) was 1.483, the “Effect, change in HAMD-17 score” value [4] was 3.331 and the “Effect, change in HAMD-28 score” value [4] was 2.054. For the same compound, the “Effect, change in HAMD-17 score” value [5] was −1.248, the “Effect, change in HAMD-28 score” value [5] was −1.018 and the “Effect, change in HAMD-17 score” value (Pooled phases, BMI < 30 kg/m^2 and HNE-His < median (19, 9)) was 4.738. The “Effect, change in HAMD-28 score” value (Pooled phases, BMI < 30 kg/m^2 and HNE-His < median) was 4.253, the “Effect, change in HAMD-17 score” value (Pooled phases, BMI < 30 kg/m^2 and SAM/SAH >= median (16,8)) was 2.583 and the “Effect, change in HAMD-28 score” value (Pooled phases, BMI < 30 kg/m^2 and SAM/SAH >= median) was 2.906. The “Effect, change in HAMD-28 score” value (Pooled phases, BMI >= 30 kg/m^2 (40,21)) was −4.660, the “Effect, change in HAMD-17 score” value (Pooled phases, BMI >= 30 kg/m^2 and HNE-His >= median (23, 11)) was −5.420 and the “Effect, change in HAMD-17 score” value (Pooled phases, BMI >= 30 kg/m^2 and SAM/SAH < median (21,9)) was −7.302. For the same compound, the “Effect, change in HAMD-28 score” value (Pooled phases, BMI >= 30 kg/m^2 and SAM/SAH < median = 2.71 (plasma sample)) was −7.572, the “Effect, change in HAMD-17 score” value (Pooled phases, MTHFR 677 CC and BMI < 30 kg/m^2 (17,8)) was 1.356 and the “Effect, change in HAMD-28 score” value (Pooled phases, MTHFR 677 CC and BMI < 30 kg/m^2) was −0.234. The “Effect, change in HAMD-17 score” value (Pooled phases, MTHFR 677 CC and HNE-His < median (20,11)) was −1.050 and the “Effect, change in HAMD-28 score” value (Pooled phases, MTHFR 677 CC and HNE-His < median = 3.28 (plasma sample)) was −1.340.
